In US9295732B2, “Conjugated TLR7 and/or TLR8 and TLR2 polycationic agonists” (CAYLA, priority 2013, dated 2016):

Columns and labels:
plasmid DNA (pDNA) = assay: Gel shift (mobility shift) assay of pDNA complexation; assay type: binding; conditions: pDNA:molecule ratio 3:24 (w:w), 0.8% agarose gel, compared to pDNA alone
In short: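 Complexes of pDNA with TLR7-TLR2 polyamine molecules run on 0.8% agarose in TAE at 135 V for 21 min, ethidium bromide stained and viewed under UV. Complexation scored as partial or complete retardation of pDNA migration versus pDNA alone, complexed pDNA appearing as a smear in wells.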

[1] = tested on: ISG54 promoter activity in RAW-ISG54 reporter cells; assay: IFN response assay, RAW-ISG54 luciferase reporter cells; assay type: cell-based, mouse; conditions: in complexes with pDNA 3:24 (w:w), overnight, FIG. 6A
Description: (§1) The effect of the pDNA:TLR7-TLR2 polyamine molecules complexes on inducing an interferon response was examined. pDNA:TLR7-TLR2 polyamine molecules mixtures (pDNA:TLR7-TLR2 polyamine molecules ratio 3:24, w:w) in serum-free medium or 5% glucose were prepared as described above and added to IFN reporter cells. Luciferase reporter cell lines were used to assay interferon response. A plasmid containing an interferon-inducible luciferase reporter gene was introduced into mouse RAW 264.7 macrophages and mouse B16 melanoma cells, giving rise to the RAW-ISG54 and B16-ISG54 reporter cell lines respectively. Expression of the luciferase reporter gene by the plasmid is under the control of an interferon-inducible promoter (I-ISG54) comprising five interferon-stimulated response elements (ISRE) and the minimal promoter of the human ISG-54K (Interferon Stimulation of a Gene encoding a 54 kDa protein) gene. The ISG-54K gene is induced by interferon regulatory factor 3 (IRF3), which has a key involvement in […] responses (Grandvaux et al. 2002) and the minimal promoter of the human ISG-54K gene contains two ISRE sites and fully inducible by type I interferons (IFN-α and IFN-β) and interferon regulatory factors (IRFs) (Wathelet et al. 1988; Grandvaux et al. 2002).
(§2) The RAW-ISG54 and B16-ISG54 reporter cell lines were seeded onto 96 well microtiter plates at 100,000 cells per well and 75,000 cells per well respectively. Cells were cultured in DMEM supplemented with 10% (v/v) heat inactivated fetal bovine serum (30 min at 56° C.), 4.5 g/I glucose, 2 mM L-glutamine, 50 U/ml penicillin, 50 μg/ml streptomycin, 100 μg/ml Normocin™ (InvivoGen) together with pDNA:TLR7-TLR2 polyamine complexes at 37° C. overnight. pDNA:TLR7-TLR2 polyamine molecules complexes were prepared as described above prior to adding to the IFN reporter cells. The induced luciferase expression was assessed in the reporter cell lines using a coelenterazine-base luminescence assay reagent, the Quanti-Luc™ (InvivoGen). Secreted luciferase activity was determined by bioluminescence quantification of the cell culture media using a microplate luminometer (FLUOstar OPTIMA from BMG Labtech).

HEK293 cells = assay: Cell transfection with SEAP plasmid, HEK293; assay type: cell-based, human; conditions: in complex with pVitro14 LGFP SEAP plasmid, 48 hours, SEAP expression; FIG. 5A
Description: The TLR7-TLR2 molecules were tested for their ability as polyamine molecules to transport plasmid DNA (pDNA) into cells. The pVitro14 LGFP SEAP plasmid (InvivoGen) was complexed to TLR7-TLR2 polyamine molecules and to the control cationic lipid transfection agent, LyoVec™ (InvivoGen). The human HEK293 (ATCC, CRL-1573) and mouse B16-F1 melanoma (ATCC, CRL-6323) cell lines were seeded at a density of 50 000 cells/well and 20 000 cells/well respectively, in the absence or presence of different volumes of the plasmid encoding for the SEAP protein in complex with TLR7-TLR2 polyamine molecules for 48 hours at 37° C. and 10% CO2. Transfection efficiency was assessed by measuring SEAP reporter gene expression: 20 μl of supernatant was sampled and mixed with 180 μl of QUANTI-Blue™ Detection (InvivoGen). In the presence of alkaline phosphatase SEAP, the color of QUANTI-Blue™ changes from pink to purple/blue. The intensity of the blue hue reflects the activity of SEAP. The levels of SEAP secretion were determined quantitatively by reading the OD at 620-655 nm using a spectrophotometer, iMark™ Microplate Reader (BIO-RAD).

human TLR2 = molecular target: T1, human TLR2 (Homo sapiens, UniProt O60603); assay: HEK-Blue hTLR2 NF-κB/AP-1 SEAP reporter assay; assay type: cell-based; conditions: HEK-Blue hTLR2 cells, 10 μg/mL to 10 pg/ml, 24 hours, OD at 655 nm, FIG. 3
T1 construct: host or cells: HEK293 (HEK-Blue™ hTLR2)
T1 sequence (O60603 21-784): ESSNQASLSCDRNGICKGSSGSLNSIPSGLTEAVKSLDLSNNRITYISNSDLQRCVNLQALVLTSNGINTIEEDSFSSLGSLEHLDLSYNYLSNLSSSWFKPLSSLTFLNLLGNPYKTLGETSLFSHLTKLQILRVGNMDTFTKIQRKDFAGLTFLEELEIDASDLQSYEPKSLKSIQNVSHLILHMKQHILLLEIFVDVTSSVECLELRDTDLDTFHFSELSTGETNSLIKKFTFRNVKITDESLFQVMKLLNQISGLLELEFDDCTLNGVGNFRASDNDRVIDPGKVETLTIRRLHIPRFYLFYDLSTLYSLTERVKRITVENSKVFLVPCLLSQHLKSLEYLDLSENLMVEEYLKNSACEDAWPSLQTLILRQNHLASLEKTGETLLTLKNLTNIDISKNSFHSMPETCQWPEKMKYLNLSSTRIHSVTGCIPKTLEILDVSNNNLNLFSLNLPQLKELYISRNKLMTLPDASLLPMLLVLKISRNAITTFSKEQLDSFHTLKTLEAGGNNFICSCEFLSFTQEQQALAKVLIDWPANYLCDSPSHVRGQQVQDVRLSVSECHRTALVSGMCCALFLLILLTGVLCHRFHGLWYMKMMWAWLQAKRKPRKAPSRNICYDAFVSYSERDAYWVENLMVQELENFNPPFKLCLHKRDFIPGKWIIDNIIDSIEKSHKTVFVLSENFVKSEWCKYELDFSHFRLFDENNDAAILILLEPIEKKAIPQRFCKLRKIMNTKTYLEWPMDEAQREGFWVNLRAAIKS
In short: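 HEK293 cells stably expressing the given TLR, or RAW 264.7-derived cells (50,000 or 100,000 cells/well respectively), carry an NF-κB/AP-1-inducible SEAP reporter. Conjugated TLR7-TLR2 agonists at final 10 μg/mL to 10 pg/ml, 24 h at 37° C. SEAP read colorimetrically as OD at 655 nm in detection medium.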

[2] = tested on: ISG54 promoter activity in B16-ISG54 reporter cells; assay: IFN response assay, B16-ISG54 luciferase reporter cells; assay type: cell-based, mouse; conditions: in complexes with pDNA 3:24 (w:w), overnight, FIG. 6B
Description: as §1, §2

Molecule	ability to complex pDNA (retardation of pDNA migration in agarose gel) (plasmid DNA (pDNA))	ability to induce an IFN response in RAW-ISG54 reporter cells [1]	ability to transfect HEK293 cells (HEK293 cells)	ability to activate hTLR2 (human TLR2)	ability to induce an IFN response in B16-ISG54 reporter cells [2]
CCCCCCCCCCCCCCCC(=O)OCC(CSC[C@H](N)C(=O)N[C@@H](CCC(=O)NCCCNCCCCNCCCN)C(=O)Nc1ccc(Cn2c(O)nc3c(N)nc(NCCCC)nc32)cc1)OC(=O)CCCCCCCCCCCCCCC (stereo partly drawn) [CL527, (6R,9S)-6,25-diamino-9-(4-((6-amino-2-(butylamino)-8-hydroxy-9H-purin-9-yl)methyl)phenylcarbamoyl)-7,12-dioxo-4-thia-8,13,17,22-tetraazapentacosane-1,2-diyl dipalmitate]	inability to migrate through an agarose gel	induce an IFN response in RAW-ISG54 reporter cells	transfect HEK293 cells	activate hTLR2	induce an IFN response in B16-ISG54 reporter cells
CCCCCCCCCCCCCCCC(=O)OCC(CSC[C@H](N)C(=O)NCCCNCCCCNCCCNC(=O)CNC(=O)c1ccc(Cn2c(O)nc3c(N)nc(NCCCC)nc32)cc1)OC(=O)CCCCCCCCCCCCCCC (stereo partly drawn) [CL553, (20R)-20-amino-1-(4-((6-amino-2-(butylamino)-8-hydroxy-9H-purin-9-yl)methyl)phenyl)-1,4,19-trioxo-22-thia-2,5,9,14,18-pentaazapentacosane-24,25-diyl dipalmitate]	inability to migrate through an agarose gel	induce an IFN response in RAW-ISG54 reporter cells	transfect HEK293 cells	activate hTLR2	induce an IFN response in B16-ISG54 reporter cells
(6S,9S,12S,15S,18S,21R)-6,25-diamino-21-(4-((6-amino-2-(butylamino)-8-hydroxy-9H-purin-9-yl)methyl)phenylcarbamoyl)-12,15,18-tris(4-aminobutyl)-9-(hydroxyl methyl)-7,10,13,16,19-pentaoxo-4-thia-8,11,14,17,20-pentaazapentacosane-1,2-diyl dipalmitate [CL413]	inability to migrate through an agarose gel	induce an IFN response in RAW-ISG54 reporter cells	lack the ability to transfect cells	activate hTLR2	induce an IFN response in B16-ISG54 reporter cells
CCCCCCCCCCCCCCCC(=O)N[C@@H](CSCC(COC(=O)CCCCCCCCCCCCCCC)OC(=O)CCCCCCCCCCCCCCC)C(=O)N[C@@H](CO)C(=O)N[C@@H](CCCCN)C(=O)N[C@@H](CCCCN)C(=O)N[C@@H](CCCCN)C(=O)N[C@@H](CCCCN)C(=O)Nc1ccc(Cn2c(O)nc3c(N)nc(NCCCC)nc32)cc1 (stereo partly drawn) [CL534, ((6R,9S,12S,15S,18S,21S)-25-amino-21-(4-((6-amino-2-(butylamino)-8-hydroxy-9H-purin-9-yl)methyl)phenylcarbamoyl)-12,15,18-tris(4-aminobutyl)-9-(hydroxylmethyl)-7,10,13,16,19-pentaoxo-6-palmitamido-4-thia-8,11,14,17,20-pentaazapentacosane-1,2-diyl dipalmitate]	inability to migrate through an agarose gel		lack the ability to transfect cells	activate hTLR2	
CCCCCCCCCCCCCCCC(=O)OCC(CSC[C@H](N)C(=O)N[C@@H](COC(=O)c1ccc(Cn2c(O)nc3c(N)nc(NCCCC)nc32)cc1)C(=O)NCCCNCCCCNCCCN)OC(=O)CCCCCCCCCCCCCCC (stereo partly drawn) [CL514, (6R,9S)-6,23-diamino-9-((4-((6-amino-2-(butylamino)-8-hydroxy-9H-purin-9-yl)methyl)benzoyloxy)methyl)-7,10-dioxo-4-thia-8,11,15,20-tetraazatricosane-1,2-diyl dipalmitate]	inability to migrate through an agarose gel	induce an IFN response in RAW-ISG54 reporter cells	transfect HEK293 cells	activate hTLR2	induce an IFN response in B16-ISG54 reporter cells
